Where “and” joins values, the source holds several entries; their conditions need not be identical. Equal entries are not always repeated.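 All cell lines were grown in 96-well plates and treated with compound for 48 hours. Abbreviation: GI50, concentration required for 50% inhibition of growth. At the TGI there is no net growth.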
What was measured:
Test in all cases: NCI-60 cell line screen, 48 h
[1] = test system: MALME-3M melanoma
[2] = test system: SK-MEL-28 melanoma
[3] = test system: MDA-MB-231 breast
[4] = test system: MCF7 breast
[5] = test system: U251 CNS
[6] = test system: MOLT-4 leukemia
[7] = test system: NCI-H460 lung
[8] = test system: SW-620 colon
[9] = test system: LOX IMVI melanoma
[10] = test system: OVCAR-8 ovarian
[11] = test system: DU-145 prostate
[12] = test system: K-562 leukemia
[13] = test system: OVCAR-4 ovarian
[14] = test system: RPMI-8226 leukemia
[15] = test system: NCI/ADR-RES ovarian
[16] = test system: HCC-2998 colon
[17] = test system: M14 melanoma
[18] = test system: EKVX NSCLC
[19] = test system: SF-539 CNS
[20] = test system: HL-60(TB) leukemia
[21] = test system: OVCAR-5 ovarian
[22] = test system: CCRF-CEM leukemia
[23] = test system: UACC-62 melanoma
[24] = test system: HT29 colon
[25] = test system: IGROV1 ovarian
[26] = test system: A549 NSCLC
[27] = test system: SNB-19 CNS
[28] = test system: SF-295 CNS
[29] = test system: RXF 393 renal
[30] = test system: COLO 205 colon
[31] = test system: NCI-H226 lung
[32] = test system: TK-10 renal
[33] = test system: HCT-15 colon
[34] = test system: NCI-H522 lung
[35] = test system: MDA-MB-435
[36] = test system: MDA-N
[37] = test system: SK-OV-3 ovarian
[38] = test system: HCT-116 colon
[39] = test system: ACHN renal
[40] = test system: SF-268 CNS
[41] = test system: 786-0 renal
[42] = test system: CAKI-1 renal
[43] = test system: HOP-62 NSCLC
[44] = test system: BT-549 breast
[45] = test system: HS 578T breast
[46] = test system: NCI-H23 lung
[47] = test system: KM12 colon
[48] = test system: SK-MEL-5 melanoma
[49] = test system: SN12C renal
[50] = test system: SNB-75 CNS
[51] = test system: OVCAR-3 ovarian
[52] = test system: SR leukemia
[53] = test system: UO-31 renal
[54] = test system: PC-3 prostate
[55] = test system: SK-MEL-2 melanoma
[56] = test system: A498 renal
[57] = test system: UACC-257 melanoma
[58] = test system: T-47D breast
[59] = test system: HOP-92 NSCLC

Question: Which TGI [1] does the source give for `CC1OC(OC2C(OC(=O)[C@]34CCC(C)(C)C[C@H]3C3=CC[C@@H]5[C@@]6(C)CC[C@H](OC7OC(CO)C(O)C(O)C7OC7OC(CO)C(O)C(O)C7O)C(C)(C)[C@@H]6CC[C@@]5(C)[C@]3(C)CC4)OCC(O)C2O)C(O)C(O)C1OC1OCC(O)C(OC2OCC(O)C(O)C2O)C1O` (stereo partly drawn) here?
Answer: 6.6 µM and 7.27 µM

Question: What about the TGI [2] of the same compound?
Answer: 3.9 µM and 3.82 µM

Question: And the TGI [3]?
Answer: 8.71 µM and 9.09 µM

Question: What about the GI50 [4] of the same compound?
Answer: 3760 nM and 1870 nM

Question: And the TGI [4]?
Answer: 11 µM and 7.69 µM

Question: What about the TGI [5] of the same compound?
Answer: 22.9 µM and 19.7 µM

Question: And the GI50 [6]?
Answer: 2.87 µM and 9.41 µM

Question: And the TGI [6]?
Answer: 22.4 µM and 26.6 µM

Question: And the TGI [7]?
Answer: 31.9 µM and 40.5 µM

Question: And the TGI [8]?
Answer: 25.3 µM and 23.6 µM

Question: What about the TGI [9] of the same compound?
Answer: 24 µM and 23.6 µM

Question: What about the TGI [10] of the same compound?
Answer: 26.9 µM and 21.7 µM

Question: And the TGI [11]?
Answer: 19.2 µM and 20.8 µM

Question: And the TGI [12]?
Answer: 18.8 µM and 17.6 µM

Question: And the TGI [13]?
Answer: 19.2 µM and 21.6 µM

Question: What about the TGI [14] of the same compound?
Answer: 16.1 µM and 17.4 µM

Question: What about the TGI [15] of the same compound?
Answer: 18.1 µM and 16.2 µM

Question: What about the TGI [16] of the same compound?
Answer: 3.75 µM and 3.4 µM

Question: What about the TGI [17] of the same compound?
Answer: 3.98 µM and 3.49 µM

Question: And the TGI [18]?
Answer: 8.6 µM and 7.32 µM

Question: And the TGI [19]?
Answer: 42.7 µM and > 100 µM

Question: And the GI50 [20]?
Answer: 1000 nM and 2720 nM

Question: And the TGI [20]?
Answer: 4.15 µM and 7.43 µM

Question: And the TGI [21]?
Answer: 16.7 µM and 16 µM

Question: And the TGI [22]?
Answer: 30 µM and 31.6 µM

Question: And the TGI [23]?
Answer: 6.58 µM and 4.71 µM

Question: What about the TGI [24] of the same compound?
Answer: 10.8 µM and 9.01 µM

Question: And the TGI [25]?
Answer: 26.4 µM and 24.3 µM

Question: What about the TGI [26] of the same compound?
Answer: 10.2 µM and 9.72 µM

Question: What about the TGI [27] of the same compound?
Answer: 20.8 µM and 20.5 µM

Question: What about the TGI [28] of the same compound?
Answer: 13.1 µM and 10.7 µM

Question: And the TGI [29]?
Answer: 20.5 µM and 24.7 µM

Question: What about the TGI [30] of the same compound?
Answer: 3.42 µM and 6.5 µM

Question: What about the TGI [31] of the same compound?
Answer: 13.9 µM and 12.4 µM

Question: What about the TGI [32] of the same compound?
Answer: 21.1 µM and 21.8 µM

Question: And the TGI [33]?
Answer: 27 µM and 26.8 µM

Question: What about the TGI [34] of the same compound?
Answer: 7.68 µM and 6.53 µM

Question: What about the TGI [35] of the same compound?
Answer: 3.59 µM and 3.22 µM

Question: What about the TGI [36] of the same compound?
Answer: 3.58 µM and 3.09 µM

Question: And the TGI [37]?
Answer: 25.6 µM and 26.5 µM

Question: And the TGI [38]?
Answer: 16.7 µM and 14 µM

Question: What about the TGI [39] of the same compound?
Answer: 15.4 µM and 18.3 µM

Question: And the TGI [40]?
Answer: 38.7 µM and 20.5 µM

Question: What about the TGI [41] of the same compound?
Answer: 18.9 µM and 19.7 µM

Question: What about the TGI [42] of the same compound?
Answer: 15.8 µM and 15.3 µM

Question: And the GI50 [43]?
Answer: 9.23 µM and 3.83 µM

Question: And the TGI [43]?
Answer: 23.3 µM and 11.2 µM

Question: What about the TGI [44] of the same compound?
Answer: 10.8 µM

Question: And the TGI [45]?
Answer: 30.3 µM and 29.3 µM

Question: And the TGI [46]?
Answer: 8.52 µM and 6.54 µM

Question: What about the TGI [47] of the same compound?
Answer: 11.8 µM and 12.5 µM

Question: And the TGI [48]?
Answer: 8.11 µM and 10.3 µM

Question: What about the TGI [49] of the same compound?
Answer: 4.82 µM and 4.43 µM

Question: What about the TGI [50] of the same compound?
Answer: 17 µM and 20.8 µM

Question: And the TGI [51]?
Answer: 22.3 µM and 34.6 µM

Question: What about the TGI [52] of the same compound?
Answer: 8.14 µM and 8.97 µM

Question: And the TGI [53]?
Answer: 4.14 µM and 3.85 µM

Question: What about the TGI [54] of the same compound?
Answer: 17.8 µM and 19.1 µM

Question: What about the TGI [55] of the same compound?
Answer: 8.07 µM and 8.23 µM

Question: What about the TGI [56] of the same compound?
Answer: 4.44 µM and 3.95 µM

Question: And the TGI [57]?
Answer: 6.02 µM and 5.36 µM

Question: What about the TGI [58] of the same compound?
Answer: 21.8 µM and 16.6 µM

Question: And the TGI [59]?
Answer: 5.81 µM and 4.97 µM

— PubChem BioAssay (NCI)
